Test results: patent EP4151203B1, “RAPESEED MEAL EXTRACT, METHOD FOR PREPARING SAME AND USE IN COSMETICS, IN PARTICULAR AS A PRO-PIGMENTING, SLIMMING AGENT” (Lyster, priority 2021, dated 2023)
Several values for one entry are separate records, joined by “and”; a condition that tells them apart may be missing. Identical values can stand only once. Marks after values point to notes of the source that are not given here.

Experiments:
[1] = tested on: mélanocytes humains normaux; assay: Propigmenting activity: melanin production by melanocytes (optical density at 405 nm); format: cell-based, humain; settings: 250 µM
Protocol: Les mesures de l'activité propigmentante (augmentation de la production de mélanine) de plusieurs compositions de l'extrait de tourteau de colza présentant des concentrations différentes ont été effectuée par dosage des mélanocytes humains normaux in vitro.
Les compositions de concentrations 0,03% (v/v), 0,1% (v/v), et 0,3% (v/v) ont été préparées par dilution de la solution 50/50 dans le milieu d'incubation.
Les cultures des mélanocytes normaux d'épiderme humain ont été cultivés en culture monocouche jusqu'à confluence. Puis les mélanocytes ont été incubés pendant 72 heures soit en l'absence de l'extrait à tester (contrôle) soit en présence des différentes compositions de l'extrait à tester. Le produit de référence pour l'inhibition de la synthèse de mélanine était une solution d'acide kojique à 250 µM.
Les quantités de mélanine produite par les mélanocytes ont été déterminées par une méthode spectrophotométrique c'est-à-dire une mesure de densité optique à 405 nm effectuée au moyen d'un spectrophotomètre « Genesys 150 » de la société ThermoFisher Scientific.
Le tableau 7 présente la quantité de mélanine (µg) produite par mg de protéines totales dans le lysat cellulaire monocouche.
Le niveau de signification entre le "contrôle" et la « référence » a été évalué à l'aide d'un test t de Student (* : p<0,05). [Tableau 7]

[2] = tested on: adipocytes humains normaux; assay: Lipolytic activity: NEFA released by adipocytes in suspension; format: cell-based, humain; settings: for NEFA, Moyenne / NEFA: 2 h; for NEFA, Moyenne: mean of 3, p<0.05 vs control; for NEFA: single replicate
Source text: Les mesures de l'activité lipolytique de plusieurs compositions d'extrait de tourteau de colza à des concentrations différentes ont été effectuées sur des adipocytes humains normaux de tissu cutané adipeux prélevé sur un adulte de 40 ans. Une suspension des adipocytes humains a été incubée pendant 2 H en présence d'une part des compositions d'extrait à tester et d'autre part du produit de référence (contrôle).
Les compositions de concentrations 0,003% (v/v), 0,01% (v/v), et 0,03% (v/v) d'extrait de tourteau de colza ont été préparées par dilution de la solution 50/50 dans le milieu d'incubation.
À la fin de la période d'incubation, la quantité de NEFA libérés dans le milieu d'incubation a été déterminée à l'aide d'un kit de mesure spectro-colométrique spécifique et sensible.
Le niveau de signification entre le "contrôle" et le "produit de référence" a été évalué à l'aide d'un test t de Student (* : p<0,05).
Le niveau de signification entre le le "contrôle" et chaque "composé testé" a été évalué indépendamment pour chaque composition par une analyse de variance à un facteur (ANOVA à sens unique) suivie d'un test de Holm-Sidak (* : p<0,05).

Compound | mélanine, % du contrôle ([1]; 72 h) [%] | µg mélanine/mg de protéines, Moyenne ([1]; 72 h, mean of 3, p<0.01 vs control) | µg mélanine/mg de protéines ([1]; 72 h, single replicate) | inhibe la production de mélanine ([1]; inhibition vs control, significant) | NEFA, Moyenne ([2]; 10^-3 mol/L) | NEFA ([2]; 10^-3 mol/L) | augmente la lipolyse des adipocytes ([2]; 10^-3 mol/L, increase vs control, p<0.05) [%] | NEFA, Moyenne ([2]; 10^-4 mol/L) | NEFA ([2]; 10^-4 mol/L)
O=c1cc(CO)occ1O [acide kojique] | 52.4 | 35.8** µg mélanine/mg de protéines | 45.1 µg mélanine/mg de protéines and 30.3 µg mélanine/mg de protéines and 32.0 µg mélanine/mg de protéines | 47,6% |  |  |  |  | 
Cn1c(=O)c2c(ncn2C)n(C)c1=O [Caféine, caféine] |  |  |  |  | 47.9* µM | 41.5 µM and 50.3 µM and 51.9 µM | 41.1 | 37.7* µM | 37.1 µM and 38.8 µM and 37.2 µM
